PubChem BioAssay AID2037 (NMMLSC, 2009)

Target: Cell division control protein 42 homolog (Homo sapiens) (UniProt P60953)
Assay: blockade of fluorescent GTP uptake by Cdc42 wt – biochemical, bead-based multiplex flow cytometry, oxadiazole series, SAR follow-up (AID 2037)
Settings: GST-Cdc42 beads, Bodipy-FL-GTP binding, Ki calculated from EC50

Chain of Cell division control protein 42 homolog (Homo sapiens) (P60953 whole entry, looked up): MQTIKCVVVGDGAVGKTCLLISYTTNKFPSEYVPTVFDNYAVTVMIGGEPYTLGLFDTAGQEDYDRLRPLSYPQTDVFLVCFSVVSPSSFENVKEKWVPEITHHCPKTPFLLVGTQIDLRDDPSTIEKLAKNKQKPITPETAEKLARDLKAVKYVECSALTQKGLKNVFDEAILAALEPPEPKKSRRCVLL

Row | SMILES | Ki [nM]
1 | Cc1ccc(-c2noc(CCC(=O)N3CCN(c4cc(C)ccc4C)CC3)n2)cc1 | 920
2 | COc1ccc(-c2noc(CCC(=O)N3CCN(c4cc(C)ccc4C)CC3)n2)cc1 | 580
3 | COc1ccc(-c2coc(CCC(=O)N3CCN(c4cc(C)ccc4C)CC3)n2)cc1 | 480
4 | Cc1ccc(C)c(N2CCN(C(=O)CCc3nc(-c4ccccc4Br)no3)CC2)c1 | 490
5 | Cc1ccc(C)c(N2CCN(C(=O)CCc3nc(-c4ccc(Br)cc4)no3)CC2)c1 | 340
6 | COc1ccc(-c2noc(CCC(=O)N3CCN(c4ccccc4C)CC3)n2)cc1 | 360
7 | COc1ccc(-c2noc(CCC(=O)N3CCN(c4ccc(OC)cc4)CC3)n2)cc1 | 100
8 | COc1ccc(-c2cccc(CCC(=O)N3CCN(c4cc(C)ccc4C)CC3)c2)cc1 | 780
9 | COc1ccc(-c2noc(CCC(=O)N3CCN(c4ccccc4Br)CC3)n2)cc1 | 490
10 | COc1ccc(-c2noc(CCC(=O)N3CCN(c4cccc(C(F)(F)F)c4)CC3)n2)cc1 | 410
11 | Cc1cccc(-c2noc(CCC(=O)N3CCN(c4cc(C)ccc4C)CC3)n2)c1 | 220
12 | Cc1ccc(C)c(N2CCN(C(=O)CCc3nc(-c4cccc(Br)c4)no3)CC2)c1 | 450
13 | Cc1ccc(C)c(N2CCN(C(=O)CCc3nc(-c4ccc(F)cc4)no3)CC2)c1 | 80

More lines, in order of falling Ki, values ahead:

Row | Ki [nM] | SMILES
14 | 2550 | COc1ccc(-c2noc(CCC(=O)N3CCN(c4cccc(OC)c4)CC3)n2)cc1
15 | 1310 | COc1ccc(-c2noc(CCCC(=O)N3CCN(c4cc(C)ccc4C)CC3)n2)cc1
16 | 1050 | Cc1ccc(C)c(N2CCN(C(=O)CCc3nc(-c4ccccc4C(F)(F)F)no3)CC2)c1
17 | 850 | Cc1ccc(C)c(N2CCN(C(=O)CCc3nc(-c4ccccc4)no3)CC2)c1
18 | 680 | Cc1ccc(C)c(N2CCN(C(=O)CCc3nc(-c4ccc(C(F)(F)F)cc4)no3)CC2)c1
19 | 590 | COc1cccc(-c2noc(CCC(=O)N3CCN(c4cc(C)ccc4C)CC3)n2)c1
20 | 460 | Cc1ccc(C)c(N2CCN(C(=O)CCc3nc(-c4cccc(Cl)c4)no3)CC2)c1
21 | 420 | COc1ccc(-c2noc(CCC(=O)N3CCN(c4ccccc4C(F)(F)F)CC3)n2)cc1
22 | 360 | Cc1ccc(C)c(N2CCN(C(=O)CCc3nc(-c4ccc(Cl)cc4)no3)CC2)c1
23 | 330 | COc1ccccc1-c1noc(CCC(=O)N2CCN(c3cc(C)ccc3C)CC2)n1
24 | 300 | COc1ccc(-c2noc(CCC(=O)N3CCC(c4cc(C)ccc4C)CC3)n2)cc1
25 | 250 | Cc1ccc(C)c(N2CCN(C(=O)CCc3nc(-c4ccc(N(C)C)cc4)no3)CC2)c1
26 | 240 | COc1ccc(-c2noc(CCC(=O)N3CCN(c4cccc(C)c4C)CC3)n2)cc1
27 | 170 | COc1ccc(-c2noc(CCC(=O)N3CCN(c4ccccc4Cl)CC3)n2)cc1
28 | 140 | COc1ccc(-c2noc(CCC(=O)N3CCN(c4ccccc4F)CC3)n2)cc1
29 | 120 | COc1ccc(-c2noc(CCC(=O)N3CCN(c4ccc(C)cc4)CC3)n2)cc1
